The test system of one test is Nav1.7. Particulars: also ref 20 (HwTx-IV), 36 (HnTx-III), 37 (HnTx-IV); cited from earlier work. The source says: In order to further understand the actions of HpTx3 on the Nav1.7 channel, we examined the effect of the toxin on the current–voltage (I–V) relationship of the Nav channel subtype. […] When the conductance–voltage (G–V) relationship and the steady-state inactivation of Nav1.7 before and after HpTx3 treatment were inve ...

The subject of another test is C57BL/6 mice, SNI model. Briefly: Spared nerve injury (SNI) model. It is filed as in vivo, mouse (C57BL/6). The note with it: morphine 1 mg/kg; 18 days after surgery; control 0.47 g; n = 8. The procedure:
(§1) Healthy female C57BL/6 mice (weighting 18–20 g) that were used for analgesic activity assay were obtained from the Experimental Animal Center of SLac-kinda (Changsha, China) and were randomly assigned to five groups, each group generally containing 8 mice. […] The mice were maintained at a temperature of 20–25 °C and under a 12 h light/12 h dark cycle, with free access to food and water. The ethical approval for the in vivo animal experiments was obtained from the Animal Care and Use Committee of the Hunan Province Animal Management Office. (The approval code: 219/2019).

The subject of test [1] is C57BL/6 mice, CFA pain model. Put plainly: Complete Freund’s adjuvant (CFA)-induced hyperalgesia. The class given is in vivo, mouse (C57BL/6). Particulars: morphine 1 mg/kg i.m. As to the method:
as §1

The subject of test [2] is C57BL/6 mice, hot plate pain model. Briefly: Hot plate test. The class given is in vivo, mouse (C57BL/6). Particulars: morphine 1 mg/kg i.p. The procedure: as §1
Hot plate test was conducted according to the method described. The hot plate test apparatus (model YSL-21, Jinan, China) was placed in a quiet room, and the temperature was set at 55 ± 1 °C. After each mouse was placed at the hot plate, its nociceptive responses (hind-paw licking or jumping) and nociceptive threshold (paw withdrawal latency) were observed and recorded. […] The mice displaying abnormal baseline paw withdrawals (shorter than 5 s and longer than 30 s) were excluded from the test.

The test system of test [3] is C57BL/6 mice, formalin-induced pain model. Put plainly: Formalin-induced paw licking. Particulars: morphine 1 mg/kg i.m., n = 8. It is filed as in vivo, mouse (C57BL/6). The procedure: as §1
The changes in the formalin-induced nociceptive reaction in mice was used to assess the in vivo effect of HpTx3 on Nav1.7-mediated pain [74, 77, 78]. Paw licking, a pain-related behavior, was induced by subcutaneous intraplantar injection of formalin. […] The time that was spent to lick the injected paw by each mouse during phase I (0–10 min after injection) and phase II (15–35 min after injection) was separately recorded with a digital stopwatch. The nociceptive behavior attenuation by HpTx3 was evaluated by comparison of the paw licking times of the mice in each group.

With HwTx-IV: Nav1.7-targeting peptide toxin, in the test with Nav1.7, the “alteration in voltage-dependence of activation and steady-state inactivation of Nav1.7” value is recorded as “less than 5 mV”; the “effect on I-V relationship for Nav1.7” value is on record as “do not alter the I-V relationship”.
In the case of `CN1CC[C@]23c4c5ccc(O)c4O[C@H]2[C@@H](O)C=C[C@H]3[C@H]1C5` [morphine], the “average paw withdrawal threshold, SNI” value in the test on C57BL/6 mice, SNI model is reported as 1.05 g. Further, the “time of strongest analgesic effect after injection, CFA” value in test [1] worked out at 0.5 h. For the same molecule, the “paw withdrawal threshold, CFA” value in test [1] (control 0.71 g, n = 8) is 1.05 g. The “time of most analgesic effect after injection, hot plate” value in test [2] came out at 0.5 h. Also, the “average paw withdrawal latency, hot plate” value in test [2] (55 ± 1 °C, control 5.93 s, n = 8) is 11.03 s. The “total paw licking time, phase I” value in test [3] (0–10 min after formalin, control 248 s) is recorded as 99 s. Besides, in test [3] (15–35 min after formalin, control 572.7 s), the “total paw licking time, phase II” value is on record as 134.3 s.

The values are drawn from article PMC6950750, “Newly Discovered Action of HpTx3 from Venom of Heteropoda venatoria on Nav1.7 and Its Pharmacological Implications in Analgesia” (Toxins, 2019).
